This is an account of results in patent US20090209525A1, “ENABLING METHODS TO IDENTIFY ALLOSTERIC MODULATORS OF RECEPTOR ACTIVITY” (priority 2006, published 2009).

The target in assay [1] is T1, rat M1 wild-type receptors (Rattus norvegicus, UniProt P08482).
T1 construct: expressed in transfected cells
T1 sequence (P08482 1-460): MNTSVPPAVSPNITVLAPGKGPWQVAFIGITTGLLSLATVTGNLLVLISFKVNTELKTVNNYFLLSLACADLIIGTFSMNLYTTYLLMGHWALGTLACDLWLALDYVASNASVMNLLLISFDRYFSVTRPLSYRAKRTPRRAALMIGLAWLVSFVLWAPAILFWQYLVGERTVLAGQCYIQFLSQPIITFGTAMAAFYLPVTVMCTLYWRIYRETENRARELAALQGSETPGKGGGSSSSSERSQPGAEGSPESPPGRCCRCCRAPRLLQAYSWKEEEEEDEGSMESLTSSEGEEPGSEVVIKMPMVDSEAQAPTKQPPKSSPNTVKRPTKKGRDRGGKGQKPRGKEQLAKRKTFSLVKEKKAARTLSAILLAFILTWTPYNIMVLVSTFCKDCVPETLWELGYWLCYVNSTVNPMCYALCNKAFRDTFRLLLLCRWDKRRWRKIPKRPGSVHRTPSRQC
Put plainly: R-SAT functional assay, wild-type receptor. Type of assay: cell-based. The settings on record: for EC50: read-out: pEC50 (converted); for Shift: EC50 divided by EC50 for wild-type (reference). How it is done:
Cells are co-transfected for 18 h with DMEM containing 0.08 micrograms/ml of an expression vector for the expression of the mutant receptor and 0.3 micrograms/ml pSI-Bgal (Promega, Madison Wis.), and 0.5% v/v Polyfect (Qiagen, Valencia Calif.), as recommended by the manufacturer. On day three, the medium is replaced with DMEM containing 1% PSG, 0.5% calf serum, 2% cyto-sf3 (Kemp Biotechnologies, Frederick, Md.), and varying concentrations of the compounds to be tested. Cells are grown in a humidified atmosphere with 5% ambient CO2 for 5 days. The media is removed from the plates, and beta-galactosidase activity is measured by the addition of o-nitrophenyl -d-galactopyranoside in phosphate-buffered saline with 5% Nonidet P-40. […] The following equation is fitted to the data using GraphPad Prism software (San Diego, Calif.):
NIH-3T3 cells were grown in 96-well tissue culture plates to 70 to 80% confluence in Dulbecco's modified essential media (DMEM) supplemented with 100 units/ml penicillin, 100 micrograms/ml streptomycin, 0.3 mg/ml L-glutamine (1% PSG, GIBCO) and 10% calf serum (Sigma-Aldrich). Cells were transfected for 18 h with DMEM containing 0.08 micrograms/ml receptor DNA and 0.3 micrograms/ml pSI-Bgal (Promega, Madison Wis.), 0.5% v/v Polyfect (Qiagen, Valencia Calif.). Medium was replaced with DMEM containing 1% PSG, 0.5% calf serum, 2% cyto-sf3 (Kemp Biotechnologies, Frederick, Md.), and varying concentrations of ligand. […] Cells were grown in a humidified atmosphere with 5% ambient CO2 for 5 days. Medium was removed from the plates, and beta-galactosidase activity was measured by the addition of o-nitrophenyl -d-galactopyranoside in phosphate-buffered saline with 5% Nonidet P-40.
Receptor Selection and Amplification (R-SAT™) Assays: R-SAT™ functional assays were carried out as follows. NIH-3T3 cells were grown in 96-well tissue culture plates to 70 to 80% confluence in Dulbecco's modified essential media (DMEM) supplemented with 100 units/ml penicillin, 100 micrograms/ml streptomycin, 0.3 mg/ml L-glutamine (1% PSG, GIBCO) and 10% calf serum (Sigma-Aldrich). Cells were transfected for 18 h with DMEM containing 0.08 micrograms/ml receptor DNA and 0.3 micrograms/ml pSI-Bgal (Promega, Madison Wis.), 0.5% v/v Polyfect (Qiagen, Valencia Calif.). The transfected cells were frozen away. Cells were thawed and added to 96 well plates with DMEM containing 1% PSG, 0.5% calf serum, 2% cyto-sf3 (Kemp Biotechnologies, Frederick, Md.), and varying concentrations of ligand.
In an effort to further characterize monoamine modulators, we used a panel of mutant muscarininc M1 receptors to analyze the activity and potency of orthosteric modulators and various allosteric modulators at those receptors.

Assay [2] has as its target T2, CHO-hM1 cell membranes (muscarinic M1 receptor) (Homo sapiens, UniProt P11229).
T2 construct: expressed in transfected cells; host or cells: CHO-hM1
T2 sequence (P11229 1-460): T1 sequence (P08482 1-460) with V5A, S254T, S309P, K320R, G337A, V413I
Put plainly: ^3H-NMS dissociation rate assay. It is filed as binding. The settings on record: for koff: read-out: koff of ^3H-NMS in the presence of the ligand. How it is done:
Approximately 10 μg protein was added per well in the assay.

[3] abbreviates: Table 2, maximum response relative to maximum response of carbachol.
Where [4] appears, read: Table 3, M1 WT, maximum response, normalized.
[5] abbreviates: Table 4, M1 wild type, maximum response relative to xanomeline.
Setting [6] is: Table 10, M1 Wild-Type, NA = non-active.
The mark [7] stands for this setting: Table 10, M1 Wild-Type, maximum response relative to carbachol.
The mark [8] stands for this setting: atropine-induced dissociation, result in words.

Positions count from the first letter of the chain named. Read-outs that look alike come from different tables or passages of the source.

A word on the koff: it is a measure of how fast the partners let go of each other. As to `CCCCC1CCN(CCCC(=O)c2ccccc2C)CC1` [AC-42, 4-n-butyl-1-[4-(2-methylphenyl)-4-oxo-1-butyl] piperidine hydrogen chloride], the entries for the “Eff (%)” value in assay [1] (setting [3]) and in assay [1] (setting [4]) were 48 ± 11% and 47 ± 5%, respectively. In addition, the EC50 in assay [1] (Table 2, mean +/- S.E.M., n=5) is 0.158 µM; in assay [1] (Table 3, M1 WT) it was 0.158 µM; in assay [1] (setting [6]), 0.2 µM. Also, in assay [1] (Table 3), the Shift worked out at 1. The “% Eff” value in assay [1] (setting [5]) worked out at 24%; in assay [1] (setting [7]), 56%. In assay [2], the “effect on dissociation rate of ^3H-NMS” value is reported as “significantly retarded”. Besides, in assay [2], the koff is 0.00175 s⁻¹.

With `CCCCC1CCN(CCCN2C(=O)COc3cc(F)ccc32)CC1` [AC-260584, 4-[3-(4-Butyl-piperidin-1-yl)-propyl]-7-fluoro-4H-benzo [1,4]oxazin-3-one], the “Eff (%)” value turned out to be 89 ± 11% in assay [1] (setting [3]) and 89 ± 6% in assay [1] (setting [4]). In addition, the EC50 in assay [1] (Table 2, mean +/- S.E.M., n=5) is 0.0158 µM; in assay [1] (Table 3, M1 WT) it was 0.0158 µM; in assay [1] (Table 4, M1 wild type) it was 0.0251 µM; in assay [1] (setting [6]), 0.0251 µM. Besides, in assay [1] (Table 3), the Shift was 1. Besides, the “% Eff” value in assay [1] (setting [5]) was determined as 59%; in assay [1] (setting [7]), 109%. Further, in assay [2] (setting [8]), the “effect on dissociation rate of ^3H-NMS” value is “significantly retarded”. For the same compound, the koff in assay [2] was 0.0015 s⁻¹.

Take `Clc1ccc2c(c1)N=C(N1CCNCC1)c1ccccc1N2` [NDMC, 8-chloro-11-(1-piperazinyl)-5H-dibenzo [b,e] [1,4] diazepine]: the “Eff (%)” value in assay [1] (setting [3]) was 79 ± 14%; in assay [1] (setting [4]) it was 78 ± 4%. Moreover, the EC50 in assay [1] (Table 2, mean +/- S.E.M., n=5) was 0.0501 µM; in assay [1] (Table 3, M1 WT), 0.0501 µM; in assay [1] (Table 4, M1 wild type), 0.0316 µM; in assay [1] (setting [6]), 0.1 µM. Moreover, the Shift in assay [1] (Table 3) was 1. Besides, the results for the “% Eff” value in assay [1] (setting [5]) and in assay [1] (setting [7]) were 43% and 93%, respectively. Also, the “effect on dissociation rate of ^3H-NMS” value in assay [2] (setting [8]) is recorded as “did not significantly retard”. Besides, the koff in assay [2] is 0.00338 s⁻¹.
